Source: US20040259948A1, “Reciprocal regulation of inflammation and lipid metabolism by liver X receptors” (priority 2003, published 2004)

Assays:
[1] = system: Thioglycolate-elicited murine peritoneal macrophages; assay: LPS-stimulated macrophages: NO production, iNOS and ABCA1 mRNA; format: cell-based
Description: To investigate the role of LXRs in host defense, the influence of LXR agonists on macrophage responses to bacterial pathogens was tested. Thioglycolate-elicited peritoneal macrophages were infected in vitro with Escherichia coli. After 18 hours, expression of inducible nitric oxide synthase (iNOS) mRNA and nitric oxide (NO) production were assessed. […] This repression occurs over the same concentration range needed to induce the established LXR target gene ATP-binding cassette transporter A1 (ABCA1). A, LXR agonist inhibits nitrite production in response to bacterial infection. […] Cells were then infected with E. coli (A, B) or treated with 100 ng/ml LPS(C, D, E) as indicated. After 18 h, NO production was determined using a colorimetric assay (A, D), or mRNA levels were determined using real-time quantitative PCR assays (B, C, E). […] The inhibitory effect of LXR agonists on iNOS expression was dose-dependent and occurred over the same range of concentration as that required to induce ATP-binding cassette transporter A1 (ABCA1) (FIGS. 1D and E).
The anti-inflammatory activity of LXR ligands can be separated from the induction of lipid metabolism genes such as ABCA1. Murine peritoneal macrophages were treated with LPS to induce iNOS gene expression (FIG. 8A) and were assayed for ABCA1 mRNA by real time qPCR (FIG. 8B). NOx production was measured by colorimetric assay. […] The identification of LXR agonists with only anti-inflammatory activity should greatly increase the usefulness of such compounds as therapeutic agents, because they lack the unwanted side effects on lipid metabolism such as elevation of triglyceride levels.
Cell culture and transfections. Thioglycolate-elicited peritoneal macrophages were cultured in RPMI containing 10% fetal bovine serum (FBS). RAW 264.7 cells were cultured in DMEM containing 10% FBS. For ligand treatments, cells were in cultured medium supplemented with 5% lipoprotein-deficient serum (LPDS) and ligands for 18 h before stimulation. Bacterial infection in vitro was performed as described (Chen, L. M. et al. 1996 Mol Microbiol 21:1101-1115). Transient transfections of RAW 264.7 cells were performed in triplicate in 48-well plates using Superfect reagent (Life Technologies). After transfection, cells were incubated in medium containing 10% LPDS and the indicated ligands for 18 h before stimulation with LPS for an additional 18 h. Luciferase activity was normalized to β-galactosidase activity. NO production was determined spectrophotometrically (Castrillo, A. et al. 2000 Mol Cell Biol 20:1692-1698).
RNA and protein analysis. Total RNA was extracted using Trizol reagent (Life Technologies, Inc.). Northern blot analysis was carried out as described using radiolabeled cDNA probes (Tontonoz, P. et al. 1998 Cell 93:241-252). Real-time quantitative PCR (TaqMan) analysis was performed using an Applied Biosystems 7700 sequence detector. Two-step real-time PCR was performed as described (Joseph, S. B. et al. 2002 J Biol Chem 277:11019-11025). The primers and probes used are as follows: […]

[2] = system: atherosclerotic aortas of Apoe−/− mice; assay: Gene expression in atherosclerotic aortas of Apoe−/− mice; format: in vivo; conditions: Apoe−/− mice 8 months of age, treated 3 days
Description: Next, the influence of LXR agonists on inflammatory gene expression induced by IL-1β and TNFα, which have been implicated in the pathogenesis of atherosclerosis, was tested. […] Gene expression was detected by real-time quantitative PCR assays. […] Total RNA was isolated from individual aortas and gene expression was measured by real-time quantitative PCR. P<0.05 for MMP-9 (*) and P<0.01 (**) for ABCA1. […] Thus, LXR agonist reduces expression of an established inflammatory mediator in the vessel wall. RNA and protein analysis. Total RNA was extracted using Trizol reagent (Life Technologies, Inc.). Northern blot analysis was carried out as described using radiolabeled cDNA probes (Tontonoz, P. et al. 1998 Cell 93:241-252). Real-time quantitative PCR (TaqMan) analysis was performed using an Applied Biosystems 7700 sequence detector. Two-step real-time PCR was performed as described (Joseph, S. B. et al. 2002 J Biol Chem 277:11019-11025). The primers and probes used are as follows: Animals. Mice on a mixed background (C57B1/6 and 129v) and Apoe^−/− mice on a C57B1/6 background were maintained on standard chow. […] Irritant contact dermatitis was induced as described (Sheu, M. Y. et al. 2002 J Invest Dermatol 118:94-101). Briefly, 10 μl of 0.03% 12-O-tetradecanoylphorbol-13-acetate (TPA) in acetone was applied to the left ears of male mice. The right ears were treated with vehicle alone. […] After 18 h of TPA treatment, the thickness and weight of 6-mm punch biopsies were determined. Statistical analysis was performed using Student's t-test. Experiments were conducted in accordance of the Animal Research Committee of the University of California, Los Angeles.

[3] = 100 ng/ml LPS, 18 h, real-time quantitative PCR, FIG. 1E

`O=C(O)Cc1cccc(OCCCN(Cc2cccc(C(F)(F)F)c2Cl)CC(c2ccccc2)c2ccccc2)c1` [GW3965] was tested, and the “nitrite production, dose response” value ([1]; 100 ng/ml LPS, 18 h, colorimetric assay, FIG. 1D) was “Dose-dependent inhibition”, the “ABCA1 mRNA expression, dose response” value [1, 3] was “Reciprocal dose-dependent regulation” and the “iNOS mRNA expression, dose response” value [1, 3] was “Reciprocal dose-dependent regulation”. For the same molecule, the “inhibition of inflammatory genes (NOx production), T1317 compared with GW3965” value ([1]; LPS, increasing doses, colorimetric assay, FIG. 8A) was “more effective inhibitor”, the “expression of ABCA1 in aorta” value ([2]; real-time quantitative PCR) was “induced” and the “expression of macrophage-specific marker CD68 in aorta” value ([2]; real-time quantitative PCR) was “did not affect”. The “expression of MCP-1 in aorta” value ([2]; versus vehicle) was “not different”, the “expression of MMP-9 in aorta” value ([2]; versus vehicle) was “substantially reduced” and the “expression of iNOS in aorta” value ([2]; versus vehicle) was “not different”.
